Chromatographic logP, inhibition and LogP data for 35 molecules are collected here from patent publication US12534456B2, “Heterocyclyl pyridines as novel fungicides” (Bayer Aktiengesellschaft, priority 2020, dated 2026).

The nature of one data set: physchem. In kind it is physicochemical. As for the experimental part:
Measurement of Log P values as provided herein was performed according to EEC directive 79/831 Annex V.A8 by HPLC (High Performance Liquid Chromatography) on reversed phase columns with the following methods: • ^[a]
If more than one Log P value is available within the same method, all the values are given and separated by “+”.
Lambda-max-values were determined using UV-spectra from 200 nm to 400 nm and the peak values of the chromatographic signals

For another data set, the system named is Alternaria alternata. Kind of data set: Alternaria alternata in vitro cell test. In kind it is cell-based. Particulars: 120 h, 20 ppm of active ingredient, liquid culture with spores, 5 days incubation, spectrometric measurement of mycelium growth, read-out: efficacy (inhibition of fungal growth). As for the experimental part:
(§1) B-5. Alternaria alternata In Vitro Cell Test • Solvent: DMSO • Culture medium: 14.6 g anhydrous D-glucose (VWR), 7.1 g Mycological Peptone (Oxoid), 1.4 g granulated Yeast Extract (Merck), QSP 1 liter • Inoculum: spores suspension • Fungicides were solubilized in DMSO and the solution used to prepare the required range of concentrations. […] A spore suspension of A. alternata was prepared and diluted to the desired spore density. Fungicides were evaluated for their ability to inhibit spore germination and mycelium growth in liquid culture assay. The compounds were added in the desired concentration to the culture medium with spores. After 5 days incubation, fungi-toxicity of compounds was determined by spectrometric measurement of mycelium growth. Inhibition of fungal growth was determined by comparing the absorbance values in wells containing the fungicides with the absorbance in control wells without fungicides.

For the next data set, the system named is Pyricularia oryzae. Kind of data set: microbe, parasite or virus in culture. The class given is cell-based. Conditions: 120 h, read-out: efficacy (inhibition of fungal growth).
Data set [1] deals with Colletotrichum lindemuthianum. The data set is described as follows: Colletotrichum lindemuthianum in vitro cell test. Conditions: 144 h, 20 ppm of active ingredient, liquid culture with spores, 6 days incubation, spectrometric measurement of mycelium growth, read-out: efficacy (inhibition of fungal growth). The class given is cell-based. As for the experimental part:
as §1, with “B-7. Colletotrichum lindemuthianum In” for “B-5. Alternaria alternata In”, “of C. lindemuthianum” for “of A. alternata”, “inhibit spores” for “inhibit spore”, “After 6” for “After 5”

For a further data set, the system named is Septoria tritici. Kind of data set: Septoria tritici in vitro cell test. Conditions: Zymoseptoria tritici, 168 h; 20 ppm of active ingredient; liquid culture with spores, 7 days incubation, spectrometric measurement of mycelium growth; read-out: efficacy (inhibition of fungal growth). In kind it is cell-based. As for the experimental part: B-8. Septoria tritici In Vitro Cell Test • Solvent: DMSO • Culture medium: 1 g KH2PO4 (VWR), 1 g K2HPO4 (VWR), 0.5 g Urea (VWR), 3 g KNO3 (Prolabo), 10 g saccharose (VWR), 0.5 g MgSO4, 7H2O (Sigma), 0.07 g CaCl2, 2H2O (Prolabo), 0.2 mg MnSO4, H2O (Sigma), 0.6 mg CuSO4, 5H2O (Sigma), 7.9 mg ZnSO4, 7H2O (Sigma), 0.1 mg H3BO3 (Merck), 0.14 mg NaMoO4, 2H2O (Sigma), 2 mg thiamine (Sigma), 0.1 mg biotine (VWR), 4 mg FeSO4, 7H2O (Sigma), QSP 1 liter • Inoculum: spore suspension Fungicides were solubilized in DMSO and the solution used to prepare the required range of concentrations. […] A spore suspension of S. tritici was prepared and diluted to the desired spore density. Fungicides were evaluated for their ability to inhibit spore germination and mycelium growth in liquid culture assay. The compounds were added in the desired concentration to the culture medium with spores. […] Inhibition of fungal growth was determined by comparing the absorbance values in wells containing the fungicides with the absorbance in control wells without fungicides.

[2] abbreviates: Table 1, compounds of formula (I), method [a]: LC-UV, acidic range, 0.1% formic acid in water and acetonitrile.

In the case of `FC(F)c1cccc(Oc2cnc(Cl)cc2C2=NOC[C@@H](Cc3ccc([C@H]4CCOC4)cc3Cl)N2)c1` (racemic) [Compound I-041, (5RS)-3-{2-chloro-5-[3-(difluoromethyl)phenoxy]pyridin-4-yl}-5-{2-chloro-4-[(3RS)-tetrahydrofuran-3-yl]benzyl}-5,6-dihydro-4H-1,2,4-oxadiazine], the chromatographic logP in the data set “physchem” (setting [2]) was 3.81. The inhibition at 20 ppm in the data set with Alternaria alternata lay in the range of 90 to 100%; in the data set on Pyricularia oryzae, 80 to 89%; in data set [1] it was 90 to 100%; with Septoria tritici, 70 to 79%.
Regarding `Cc1ccc(CC2CON=C(c3cc(N4CCCC4)ncc3Oc3cccc(C(F)(F)F)c3)N2)cc1` (racemic) [Compound I-056, (5RS)-5-(4-methylbenzyl)-3-{2-(pyrrolidin-1-yl)-5-[3-(trifluoromethyl)phenoxy]pyridin-4-yl}-5,6-dihydro-4H-1,2,4-oxadiazine], the chromatographic logP in the data set “physchem” (setting [2]) turned out to be 3.5. The inhibition at 20 ppm in the data set with Alternaria alternata lay within 90 to 100%; in the data set with Pyricularia oryzae, 80 to 89%; in data set [1], 90 to 100%.
Molecule `Cc1ccc(CC2CCN=C(c3cc(Cl)ncc3Oc3cccc(C(F)(F)F)c3)N2)c(C)c1` (racemic) [Compound I-088, rac-(6R)-2-[2-chloro-5-[3-(trifluoromethyl)phenoxy]-4-pyridyl]-6-[(2,4-dimethylphenyl)methyl]-1,4,5,6-tetrahydropyrimidine] had a chromatographic logP in the data set “physchem” (setting [2]) of 2.62. Further, the inhibition at 20 ppm with Alternaria alternata lay in the range of 80 to 89%; in data set [1], 70 to 79%.
The molecule `Cc1ccc(CC2CC(=O)N=C(c3cc(Cl)ncc3Oc3cccc(C(F)(F)F)c3)N2)c(C)c1` (racemic) [Compound I-098, rac-(6R)-2-[2-chloro-5-[3-(trifluoromethyl)phenoxy]-4-pyridyl]-6-[(2,4-dimethylphenyl)methyl]-5,6-dihydro-1H-pyrimidin-4-one] showed a chromatographic logP in the data set “physchem” (setting [2]) of 4.62. The inhibition at 20 ppm in the data set with Alternaria alternata was 80 to 89%; in data set [1], 90 to 100%.
In the case of `NC(=NO)c1cc(Cl)ncc1Oc1cccc(C(F)(F)F)c1` [Compound 10-01, 2-chloro-N′-hydroxy-5-[3-(trifluoromethyl)phenoxy]pyridine-4-carboximidamide], the chromatographic logP in “physchem” (Table 17, compounds of formula (10), method [a]: LC-UV, acidic range, 0.1% formic acid in water and acetonitrile) is 2.41.
As for `COc1ccc(C(=O)C(F)(F)ON=C(N)c2cc(Cl)ncc2Oc2cccc(C(F)(F)F)c2)cc1` [Compound 12-09, 2-chloro-N′-[1,1-difluoro-2-(4-methoxyphenyl)-2-oxoethoxy]-5-[3-(trifluoromethyl)phenoxy]pyridine-4-carboximidamide], the chromatographic logP in “physchem” (Table 17, compounds of formula (12), method [a], several values joined by + in some cells) amounted to 3.65.
Regarding `OC1CON=C(c2cc(Cl)ncc2Oc2cccc(C(F)(F)F)c2)N1` (stereo not shown) [Compound 32-01], in the data set “physchem”, the LogP is 2.11^[a].
`Cc1ccc(CC2CON=C(c3c(Oc4cccc(C(F)(F)F)c4)cnc(Cl)c3I)N2)c(C)c1` (stereo not shown) [Compound I-077]: the LogP in “physchem” was 4.66^[a].
On to `Clc1ccc(CC2CON=C(c3cc(Cl)ncc3Oc3ccc4c(c3)CCO4)N2)c(Cl)c1` (stereo not shown) [Compound I-130], for which, in the data set “physchem”, the LogP was 4.30^[a].
`C=CC(C)Nc1c(Cl)ncc(Oc2cccc(C(F)(F)F)c2)c1C1=NOCC(Cc2ccc(C)cc2C)N1` (stereo not shown) [Compound I-131]: in “physchem”, the LogP is 5.19^[a].
Still for that read-out and setting: to `Cc1ccc(CC2CON=C(c3cc(Cl)ncc3Oc3cccc(N(C)C)c3)N2)c(C)c1` (stereo not shown) [Compound I-132] belongs 4.47^[a]; to `Cc1ccc(CC2CON=C(c3c(Oc4cccc(C(F)(F)F)c4)cnc(Cl)c3-c3ccccc3)N2)c(C)c1` (stereo not shown) [Compound I-133], 5.04^[a].
With `CC(=O)Oc1cccc(Oc2cnc(Cl)cc2C2=NOCC(Cc3ccc(C)cc3C)N2)c1` (stereo not shown) [Compound I-134], in the data set “physchem”, the LogP is 3.90^[a].
The same measure, in the same setting: next, `Cc1cccc(Oc2cnc(Cl)cc2C2=NOCC(Cc3ccc(Cl)cc3Cl)N2)c1F` (stereo not shown) [Compound I-135]: 4.75^[a]; `Cc1ccc(CC2CON=C(c3cc(Cl)ncc3Oc3cccc(C)c3F)N2)c(Cl)c1` (stereo not shown) [Compound I-136]: 4.66^[a].
For the molecule `Oc1cc(C2=NOCC(Cc3ccc(Br)cc3Cl)N2)c(Oc2cccc(C(F)F)c2)cn1` (stereo not shown) [Compound I-137], in the data set “physchem”, the LogP is 4.56^[a].
As to `FC(F)(F)c1cccc(Oc2cnc(Cl)cc2C2=NOCC(Cc3csc(Cl)c3)N2)c1` (stereo not shown) [Compound I-138], the LogP in “physchem” is 4.38^[a].
Turning to `Cc1ccc(CC2CON=C(c3cc(Cl)ncc3Oc3cnc4c(c3)CCC4)N2)c(C)c1` (stereo not shown) [Compound I-140], the LogP in the data set “physchem” was 3.17^[a].
For `CCc1cccc(Oc2cnc(Cl)cc2C2=NOCC(Cc3ccc(Cl)cc3Cl)N2)c1F` (stereo not shown) [Compound I-141], the LogP in the data set “physchem” was 5.16^[a].
On the same count and under the same terms, next, `CCOc1cccc(Oc2cnc(Cl)cc2C2=NOCC(Cc3ccc(C)cc3C)N2)c1` (stereo not shown) [Compound I-142]: 4.59^[a].
With `Cc1ccc(CC2CON=C(c3cc(Cl)ncc3Oc3cccc(Cl)c3F)N2)c(C)c1` (stereo not shown) [Compound I-144], in the data set “physchem”, the LogP was 4.59^[a].
Still for that read-out and setting: next, `FC(F)(F)c1cccc(Oc2cnc(Cl)cc2C2=NOCC(Cc3cc(Cl)sc3Cl)N2)c1` (stereo not shown) [Compound I-145]: 4.83^[a].
As for `Cc1ccc(C2CCON=C(c3cc(Cl)ncc3Oc3cccc(C(F)(F)F)c3)N2)cc1` (stereo not shown) [Compound I-146], the LogP in “physchem” is 2.06^[a].
`COc1cccc(Oc2cnc(Cl)cc2C2=NOCC(Cc3ccc(C)cc3C)N2)c1F` (stereo not shown) [Compound I-147]: in “physchem”, the LogP is 4.06^[a].
For `FC(F)(F)Oc1cccc(Oc2cnc(Cl)cc2C2=NOCC(Cc3ccc(Cl)cc3Cl)N2)c1` (stereo not shown) [Compound I-148], in “physchem”, the LogP was 4.88^[a].
For `Fc1c(Oc2cnc(Cl)cc2C2=NOCC(Cc3ccc(Cl)cc3Cl)N2)cccc1OC(F)(F)F` (stereo not shown) [Compound I-149], the LogP in the data set “physchem” is 4.88^[a].
On the same count and under the same terms, to `Cc1ccc(CC2CON=C(c3c(Oc4cccc(C(F)(F)F)c4)cnc(Cl)c3C3CC3)N2)c(C)c1` (stereo not shown) [Compound I-150] belongs 4.70^[a]; to `Cc1cccc(CC2CON=C(c3cc(Cl)ncc3Oc3cccc(Cl)c3F)N2)c1Cl` (stereo not shown) [Compound I-151], 4.62^[a]; to `COc1cc(C2=NOCC(Cc3ccc(C)cc3C)N2)c(Oc2cccc(C(F)(F)F)c2)cn1` (stereo not shown) [Compound I-152], 4.55^[a].
As for `COCc1cccc(Oc2cnc(Cl)cc2C2=NOCC(Cc3ccc(C)cc3C)N2)c1` (stereo not shown) [Compound I-153], the LogP in “physchem” is 4.10^[a].
For the molecule `CSc1cccc(Oc2cnc(Cl)cc2C2=NOCC(Cc3ccc(C)cc3C)N2)c1F` (stereo not shown) [Compound I-154], the LogP in the data set “physchem” was 4.47^[a].
As to `COc1ccc(C2CCON=C(c3cc(Cl)ncc3Oc3cccc(C(F)(F)F)c3)N2)cc1` (stereo not shown) [Compound I-155], the LogP in the data set “physchem” was 1.90^[a].
Turning to `C#Cc1ccc(CC2CON=C(c3cc(Cl)ncc3Oc3cccc(C(F)(F)F)c3)N2)c(C)c1` (stereo not shown) [Compound I-156], the LogP in “physchem” was 4.08^[a].
Consider `Cc1cccc(C2CON=C(c3cc(Cl)ncc3Oc3cccc(C(F)(F)F)c3)N2)c1C` (stereo not shown) [Compound I-157], for which the LogP in “physchem” was 4.23^[a].
`Cc1cc(Br)ccc1CC1CON=C(c2cc(Cl)ncc2Oc2cccc(C(F)(F)F)c2)N1` (stereo not shown) [Compound I-158]: in the data set “physchem”, the LogP was 4.81^[a].
